Reference: patent US4574127A, “Oxazoles and thiazoles containing an aminohydroxypropoxyphenyl moiety” (Merck & Co., Inc., priority 1984, dated 1986)

Legend:
[1] = molecular target: T1, β2 (Cavia porcellus, UniProt Q8K4Z4); assay: β2 potency: inhibition of isoproterenol-induced relaxation of isolated guinea pig tracheal chains contracted with PGF2α; conditions: isolated guinea pig tracheal chains contracted with PGF2α, vs isoproterenol, in vitro; for Kb: read-out: β2 pA2 (converted)
T1 construct: isolated guinea pig tracheal chains; from tissue; host or cells: guinea pig trachea
T1 sequence (Q8K4Z4 whole entry): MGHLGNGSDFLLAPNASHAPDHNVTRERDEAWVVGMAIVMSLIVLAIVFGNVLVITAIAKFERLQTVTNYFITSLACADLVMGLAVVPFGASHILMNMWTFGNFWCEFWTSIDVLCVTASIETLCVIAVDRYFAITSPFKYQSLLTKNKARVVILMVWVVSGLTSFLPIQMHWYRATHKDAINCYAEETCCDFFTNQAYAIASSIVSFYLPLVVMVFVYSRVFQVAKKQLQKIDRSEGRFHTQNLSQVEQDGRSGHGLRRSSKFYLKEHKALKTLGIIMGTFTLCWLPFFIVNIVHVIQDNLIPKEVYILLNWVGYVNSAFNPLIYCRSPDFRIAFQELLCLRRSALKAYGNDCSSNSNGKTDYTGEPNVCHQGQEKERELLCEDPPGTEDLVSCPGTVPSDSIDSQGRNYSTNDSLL
Description: (§1) Expressed in different terms, a smaller amount of a compound of the invention is required to block isoproterenol-induced elevation in heart rate than is required to block the isoproterenol-induced relaxation of the bronchi. […] Med. Chem., 26, 956-7 (1983) pursuant to which in vitro β-adrenergic blocking activity is determined by the interaction with β1 -receptor via inhibition of the positive chronotropic actions of isoproterenol in isolated guinea pig atrial preparations. β2 potency is determined by using isolated guinea pig tracheal chains contracted with PGF2α and by measuring inhibition of isopreterenol-induced relaxation.

[2] = system: β2; assay: as above; conditions: ratio of ED50 for pulmonary effect (β2) : ED50 for cardiac effect (β1); over 1 = cardioselective
Description: as §1

[3] = molecular target: T2, β1-receptor (Cavia porcellus, UniProt H0W3H1); assay: in vitro β-adrenergic blocking activity: inhibition of positive chronotropic actions of isoproterenol in isolated guinea pig atrial preparations; conditions: vs isoproterenol, read-out: β1 pA2 (converted)
T2 construct: isolated guinea pig atrial preparations; from tissue; host or cells: guinea pig atria
T2 sequence (H0W3H1 1-470): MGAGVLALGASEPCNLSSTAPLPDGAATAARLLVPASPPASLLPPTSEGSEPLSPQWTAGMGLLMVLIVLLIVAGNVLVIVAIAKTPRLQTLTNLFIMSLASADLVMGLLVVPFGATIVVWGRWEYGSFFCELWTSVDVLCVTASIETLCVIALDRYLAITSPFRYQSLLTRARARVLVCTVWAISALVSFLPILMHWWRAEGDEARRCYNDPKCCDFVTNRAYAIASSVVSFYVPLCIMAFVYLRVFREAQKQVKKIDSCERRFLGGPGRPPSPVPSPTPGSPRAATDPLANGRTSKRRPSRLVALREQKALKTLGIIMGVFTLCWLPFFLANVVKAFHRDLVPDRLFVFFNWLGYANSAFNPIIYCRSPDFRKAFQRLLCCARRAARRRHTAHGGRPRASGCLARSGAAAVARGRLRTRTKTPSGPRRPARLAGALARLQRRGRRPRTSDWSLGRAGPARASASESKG
Description: as §1

Row | β2 pA2 [1] | Kb [3] [µM] | Kb [1] [µM] | SMILES | β2:β1 ratio (cardioselectivity) [2]
1 | 4.67 | 1.12 | – | COc1ccc(CCNCC(O)COc2ccc(-c3ncco3)cc2)cc1OC (stereo not drawn) [Example 1, 2-{p-[3-(3,4-Dimethoxyphenethylamino)-2-hydroxypropoxy]phenyl}oxazole] | 19
2 | – | 0.0589 | 47.9 | COc1ccc(CCNC[C@H](O)COc2ccc(-c3nccs3)cc2)cc1OC [Example 2, (S) 2-{p-[3-(3,4-Dimethoxyphenylethyl)amino-2-hydroxypropoxy]phenyl}thiazole] | 813
3 | – | 2.34 | 200 | OC(CNC1CC1)COc1ccc(-c2nccs2)cc1 (stereo not drawn) [Example 3, 2-[p-(3-Cyclopropylamino-2-hydroxypropoxy)phenyl]thiazole] | 85
